Legend:
[1] = molecular target: T1, Adrenergic receptor alpha-1 (Homo sapiens, UniProt P35348+P25100+P35368); assay: In vitro blocking activity against alpha adrenergic receptor, isolated from rabbit aortic strip; format: protein assay, Oryctolagus cuniculus
T1 sequence (P35348 whole entry): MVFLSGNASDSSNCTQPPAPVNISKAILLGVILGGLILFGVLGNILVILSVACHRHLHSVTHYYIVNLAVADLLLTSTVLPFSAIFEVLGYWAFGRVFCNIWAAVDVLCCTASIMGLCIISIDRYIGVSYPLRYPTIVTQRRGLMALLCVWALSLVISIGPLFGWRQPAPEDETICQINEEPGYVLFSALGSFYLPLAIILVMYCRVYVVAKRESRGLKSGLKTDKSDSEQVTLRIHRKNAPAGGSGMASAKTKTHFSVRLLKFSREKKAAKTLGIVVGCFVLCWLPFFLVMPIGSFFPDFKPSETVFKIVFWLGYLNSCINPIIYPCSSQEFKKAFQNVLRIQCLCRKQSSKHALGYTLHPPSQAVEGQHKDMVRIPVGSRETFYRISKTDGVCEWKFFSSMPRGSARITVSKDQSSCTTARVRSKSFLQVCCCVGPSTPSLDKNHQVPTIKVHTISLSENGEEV
T1 sequence (P25100 whole entry): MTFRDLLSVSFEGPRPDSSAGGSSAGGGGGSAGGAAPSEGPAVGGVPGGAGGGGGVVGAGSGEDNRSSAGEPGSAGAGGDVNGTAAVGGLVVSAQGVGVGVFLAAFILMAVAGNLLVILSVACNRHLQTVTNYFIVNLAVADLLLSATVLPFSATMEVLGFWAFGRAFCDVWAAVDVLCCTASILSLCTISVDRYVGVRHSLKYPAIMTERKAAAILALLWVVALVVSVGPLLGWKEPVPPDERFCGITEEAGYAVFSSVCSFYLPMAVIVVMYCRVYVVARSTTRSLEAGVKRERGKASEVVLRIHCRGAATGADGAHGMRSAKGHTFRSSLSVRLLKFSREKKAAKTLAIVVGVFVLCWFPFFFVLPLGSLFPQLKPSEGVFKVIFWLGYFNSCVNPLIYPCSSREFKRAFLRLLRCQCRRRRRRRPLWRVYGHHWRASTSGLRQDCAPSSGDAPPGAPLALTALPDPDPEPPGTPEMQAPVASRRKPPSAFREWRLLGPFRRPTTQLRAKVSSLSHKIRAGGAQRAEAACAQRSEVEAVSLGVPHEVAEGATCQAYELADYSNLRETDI
T1 sequence (P35368 whole entry): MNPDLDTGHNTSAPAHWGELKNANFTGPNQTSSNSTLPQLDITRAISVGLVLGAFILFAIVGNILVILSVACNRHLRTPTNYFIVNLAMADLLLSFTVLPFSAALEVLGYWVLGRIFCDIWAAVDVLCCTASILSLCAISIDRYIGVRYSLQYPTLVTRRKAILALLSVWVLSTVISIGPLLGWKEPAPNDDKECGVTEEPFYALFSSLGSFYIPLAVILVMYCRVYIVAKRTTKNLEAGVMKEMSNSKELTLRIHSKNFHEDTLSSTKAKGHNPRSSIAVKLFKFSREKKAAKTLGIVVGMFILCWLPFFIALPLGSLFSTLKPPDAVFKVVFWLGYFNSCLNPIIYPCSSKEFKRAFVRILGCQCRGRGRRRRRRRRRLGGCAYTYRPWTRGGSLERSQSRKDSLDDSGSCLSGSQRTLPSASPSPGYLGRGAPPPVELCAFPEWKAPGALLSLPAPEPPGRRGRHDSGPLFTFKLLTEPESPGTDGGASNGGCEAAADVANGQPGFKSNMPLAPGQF

Oryctolagus cuniculus = organism: Oryctolagus cuniculus; assay: Ratio of pA2 for beta-adrenergic receptor to that of alpha-adrenergic receptor
Adrenergic receptor beta = Adrenergic receptor beta (Homo sapiens, UniProt P08588+P07550+P13945); assay: In vitro blocking activity against beta adrenergic receptor, isolated from guinea pig atria; format: protein assay
Cavia porcellus = organism: Cavia porcellus; assay: spasmolytic activity in isolated guinea pig ileum preparation;- log KB; (Bacl2); format: functional, organism-based; conditions: read-out: pA2 (converted)
Rattus norvegicus [2] = assay: Antihypertensive activity in spontaneously hypertensive rats(SHR) at 50 mg/kg peroral dose after 1 h, expressed as decrease in systolic blood pressure; format: functional, Artery; conditions: route oral
Rattus norvegicus [3] = assay: Antihypertensive activity in spontaneously hypertensive rats(SHR) at 50 mg/kg peroral dose after 4 h, expressed as decrease in systolic blood pressure; format: functional, Artery; conditions: route oral
[4] = molecular target: Beta-1 adrenergic receptor (Homo sapiens) (UniProt P08588); conditions: Canis lupus familiaris;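 note: anesthetized dogs dosed intravenously, sympatholytic action measured as inhibition of the chronotropic response to isoproterenol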
Description: In vivo sympatholytic activity (isoproterenol-induced chronotropy) at beta 1-adrenergic receptor in anesthetized dog, iv

[5] = molecular target: Beta-2 adrenergic receptor (Canis lupus familiaris) (UniProt P54833);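 note: Beta-2 blockade of isoproterenol-induced vasodepression in anesthetized dogs, given intravenously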
Description: In vivo sympatholytic activity (isoproterenol-induced vasodepression) at beta 2-adrenergic receptor in anesthetized dog, iv

[6] = molecular target: Adrenergic receptor alpha (Homo sapiens) (UniProt P35348+P08913+P18825+P25100+P35368+P18089); conditions: Canis lupus familiaris
Description: In vivo sympatholytic activity (phenylephrine-induced vasopressor response) at alpha-adrenergic receptor in anesthetized dog, iv

Beta-2 adrenergic receptor (Canis lupus familiaris), sequence (P54833 whole entry, looked up): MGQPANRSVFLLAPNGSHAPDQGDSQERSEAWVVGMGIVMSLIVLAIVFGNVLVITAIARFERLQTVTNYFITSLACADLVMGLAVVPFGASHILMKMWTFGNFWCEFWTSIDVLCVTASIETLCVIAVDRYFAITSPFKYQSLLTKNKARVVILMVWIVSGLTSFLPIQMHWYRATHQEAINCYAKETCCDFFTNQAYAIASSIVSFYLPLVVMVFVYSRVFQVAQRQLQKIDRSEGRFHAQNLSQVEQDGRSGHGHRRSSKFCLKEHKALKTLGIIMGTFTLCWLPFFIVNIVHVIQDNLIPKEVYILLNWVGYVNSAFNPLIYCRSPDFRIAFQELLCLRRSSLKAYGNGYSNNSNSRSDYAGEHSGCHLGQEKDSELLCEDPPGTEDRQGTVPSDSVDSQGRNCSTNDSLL
Beta-1 adrenergic receptor (Homo sapiens), sequence (P08588 whole entry, looked up): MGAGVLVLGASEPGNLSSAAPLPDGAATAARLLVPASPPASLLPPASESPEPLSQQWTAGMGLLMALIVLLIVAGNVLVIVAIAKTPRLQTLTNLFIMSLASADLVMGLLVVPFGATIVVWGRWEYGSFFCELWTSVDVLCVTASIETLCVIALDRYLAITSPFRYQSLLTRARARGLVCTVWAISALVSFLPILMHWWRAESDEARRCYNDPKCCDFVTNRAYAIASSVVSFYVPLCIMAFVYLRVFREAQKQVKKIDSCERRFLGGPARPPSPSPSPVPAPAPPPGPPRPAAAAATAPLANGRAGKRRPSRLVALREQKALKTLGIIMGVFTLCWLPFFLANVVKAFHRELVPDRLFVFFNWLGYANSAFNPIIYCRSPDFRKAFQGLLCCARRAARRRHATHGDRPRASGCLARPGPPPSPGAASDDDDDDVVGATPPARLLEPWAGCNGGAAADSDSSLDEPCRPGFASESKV

Row | Structure (SMILES) | pA2 [1] | Ratio (Oryctolagus cuniculus) | pA2 (Adrenergic receptor beta) | DR10 [4] [mg/kg] | DR10 [5] [mg/kg] | DR10 [6] [mg/kg] | Kb (Cavia porcellus) [µM] | BP decrease (Rattus norvegicus [2]) [mmHg] | BP decrease (Rattus norvegicus [3]) [mmHg]
1 | CC(C)(CCc1ccc2c(c1)OCO2)NCC(O)c1ccc(O)c(C(N)=O)c1.Cl (stereo not given) | 5.31 | 69 | 7.15 | 2.1 | 0.76 | – | 0.676 | 43 | 61
2 | COC(=O)c1cc(C(O)CNC(C)CCc2ccc3c(c2)OCO3)ccc1O.Cl (stereo not given) | 5.73 | 78 | 7.62 | 2.19 | 5.46 | 5.82 | 0.126 | 56 | 53
3 | CC(CCc1ccccc1)NC(C)C(O)c1ccc(O)cc1.Cl (stereo not given) [NYLIDRIN HYDROCHLORIDE] | – | – | – | – | – | – | – | 54 | 51
4 | COC(=O)c1cc(C(O)CNC(C)(C)CCc2ccc3c(c2)OCO3)ccc1O.Cl (stereo not given) | < 5 | – | 6.55 | – | – | – | 2.63 | 41 | 39
5 | CC(C)NCC(O)COc1cccc2ccccc12.Cl (stereo not given) [PROPRANOLOL HYDROCHLORIDE] | – | – | – | – | – | – | – | 28 | 46
6 | CC(CCc1ccc2c(c1)OCO2)NCC(O)c1ccc(O)c(C(=O)N(C)C)c1.Cl (stereo not given) | 5.46 | 56 | 7.21 | – | – | – | 8.71 | 24 | 22
7 | Cl.NC(=O)c1cc(C(O)CN2CCC(n3c(O)nc4ccccc43)CC2)ccc1O (stereo not given) | 6.7 | 0.06 | 5.45 | – | – | – | > 61.7 | 6 | 15
8 | COC(=O)c1cc(C(O)CNC(C)CCc2ccc3c(c2)OCO3)ccc1OC.Cl (stereo not given) | 5.56 | 372 | 8.1 | – | – | – | 2.75 | 44 | 22
9 | CCNC(=O)c1cc(C(O)CN2CCC(n3c(O)nc4ccccc43)CC2)ccc1O.Cl (stereo not given) | 6.63 | < 0.06 | < 5.38 | – | – | – | 6.92 | 22 | 51
10 | Cc1ccccc1N1CCN(CC(O)c2ccc(O)c(C3N=NN=N3)c2)CC1 (stereo not given) | 7.56 | 0.04 | 6.14 | – | – | – | > 100 | 48 | 47
11 | COC(=O)c1cc(C(O)CN2CCC(n3c(O)nc4ccccc43)CC2)ccc1O.Cl (stereo not given) | 6.94 | 0.06 | 5.71 | – | – | – | 1.26 | 52 | 37
12 | COC(=O)c1cc(C(O)CNCC2COc3ccccc3O2)ccc1O.Cl (stereo not given) | 6.21 | 0.5 | 5.92 | – | – | – | 4.07 | 46 | 31
13 | NC(=O)c1cc(C(O)CNCC2COc3ccccc3O2)ccc1O (stereo not given) | 6.2 | 0.4 | 5.84 | – | – | – | 26.9 | 24 | 18
14 | CC(CCc1ccc2c(c1)OCO2)NCC(O)c1ccc(O)c(C(=O)O)c1.Cl (stereo not given) | 5.2 | 0.8 | 5.1 | – | – | – | > 100 | 6 | 5

The next lines start with results.

Row | pA2 [1] | Ratio (Oryctolagus cuniculus) | pA2 (Adrenergic receptor beta) | DR10 [4] [mg/kg] | DR10 [5] [mg/kg] | DR10 [6] [mg/kg] | Structure (SMILES) | Kb (Cavia porcellus) [µM] | BP decrease (Rattus norvegicus [2]) [mmHg] | BP decrease (Rattus norvegicus [3]) [mmHg]
15 | 7.42 | 0.1 | 6.44 | – | – | – | COc1ccccc1N1CCN(CC(O)c2ccc(O)c(C(N)=O)c2)CC1.Cl (stereo not given) | 13.5 | 45 | 35
16 | 6.54 | – | < 5 | – | – | – | COc1ccc(C(O)CN2CCN(c3ccccc3)CC2)cc1C(N)=O.Cl (stereo not given) | 64.6 | 38 | 25
17 | 5.47 | 0.2 | 5.17 | – | – | – | CNC(=O)c1cc(C(O)CN2CCN(c3ccc(OC)cc3)CC2)ccc1O.Cl (stereo not given) | 15.1 | 20 | 14
18 | 7.45 | 0.2 | 6.79 | – | – | – | COC(=O)c1cc(C(O)CN2CCN(c3ccccc3C)CC2)ccc1O.Cl (stereo not given) | 0.871 | 5 | 6
19 | < 5 | – | < 5 | – | – | – | NC(=O)c1cc(C(O)CN2CCN(C(=O)c3ccco3)CC2)ccc1O (stereo not given) | > 100 | 30 | 28
20 | 7.04 | – | 4.19 | – | – | – | Cl.NC(=O)c1cc(C(O)CN2CCN(c3ccccc3)CC2)ccc1O (stereo not given) | – | 7 | 9
21 | 6.87 | 0.2 | 6.17 | – | – | – | NC(=O)c1cc(C(O)CN2CCN(c3ccc(Cl)cc3)CC2)ccc1O (stereo not given) | 26.3 | 49 | 56
22 | 5.13 | 0.9 | 5.07 | – | – | – | Cl.NC(=O)c1cc(C(O)CN2CCN(Cc3ccccc3)CC2)ccc1O (stereo not given) | > 74.1 | 35 | 40
23 | 6.8 | 0.04 | 5.41 | – | – | – | COc1ccc(C(O)CN2CCN(c3ccccc3OC)CC2)cc1C(N)=O.Cl (stereo not given) | 33.1 | 56 | 46
24 | 7 | 0.3 | 6.41 | – | – | – | COC(=O)c1cc(C(O)CN2CCN(c3ccccc3OC)CC2)ccc1OC.Cl (stereo not given) | 34.7 | 37 | 35
25 | 6.08 | 0.2 | 5.37 | – | – | – | Cl.NC(=O)c1cc(C(O)CN2CCN(c3ccccn3)CC2)ccc1O (stereo not given) | 126 | 16 | 13
26 | 7.21 | 0.1 | 6.33 | – | – | – | Cc1ccccc1N1CCN(CC(O)c2ccc(O)c(C(=O)NCC(C)(C)C)c2)CC1.Cl (stereo not given) | 0.224 | 41 | 32
27 | < 5 | – | < 5 | – | – | – | COC(=O)c1cc(C(O)CN2CCN(C(=O)c3ccco3)CC2)ccc1O.Cl (stereo not given) | 17.4 | 37 | 15
28 | 6.33 | 3.7 | 6.9 | – | – | – | Cl.NC(=O)c1cc(C(O)CN2CCN(c3cccc(C(F)(F)F)c3)CC2)ccc1O (stereo not given) | 1.82 | 1 | 18
29 | 6.27 | 0.1 | 5.27 | – | – | – | CCOc1ccc(C(O)CN2CCN(c3ccccc3)CC2)cc1C(N)=O.Cl (stereo not given) | 21.4 | 22 | 19
30 | 7.95 | – | – | – | – | – | CNC(=O)c1cc(C(O)CN2CCN(c3ccccc3OC)CC2)ccc1O.Cl (stereo not given) | 9.55 | 44 | 52
31 | 6.13 | 0.5 | 5.84 | – | – | – | COc1ccc(N2CCN(CC(O)c3ccc(O)c(C(N)=O)c3)CC2)cc1.Cl.Cl (stereo not given) | > 52.5 | 10 | 7

Source: ChEMBL document CHEMBL1121801, “Salicylamide derivatives related to medroxalol with alpha- and beta-adrenergic antagonist and antihypertension activity” (J Med Chem, 1981)
